Measurements published in US20060069132A1, “Azolecarboxamide herbicides” (priority 2004, published 2006).

Tests used:
Assay in all cases: Test E pre-/postemergence herbicide test
dallisgrass = assay type: in vivo, Paspalum dilatatum
Method in brief: (§1)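 Visual 0–100 rating vs untreated controls (0 = no effect, 100 = complete control), 12–14 d after treatment in greenhouse. Pre- and postemergence (2–18 cm, 1- to 4-leaf) applications; compounds in non-phytotoxic solvent with surfactant.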

Russian thistle = assay type: in vivo, Salsola kali
Method in brief: as §1

common ragweed = assay type: in vivo, Ambrosia elatior
Method in brief: as §1

large crabgrass = assay type: in vivo, Digitaria sanguinalis
Method in brief: as §1

itchgrass = assay type: in vivo, Rottboellia cochinchinensis
Method in brief: as §1

bermudagrass = assay type: in vivo, Cynodon dactylon
Method in brief: as §1

Surinam grass = assay type: in vivo, Urochloa decumbens
Method in brief: as §1

quackgrass = assay type: in vivo, Elytrigia repens
Method in brief: as §1

[1] = Preemergence, 62 g ai/ha, scale 0 to 100
[2] = Preemergence, 125 g ai/ha, scale 0 to 100
[3] = Preemergence, 250 g ai/ha, scale 0 (no effect) to 100 (complete control)
[4] = Preemergence, 500 g ai/ha, scale 0 (no effect) to 100 (complete control)
[5] = Postemergence, 500 g ai/ha, scale 0 to 100
[6] = Postemergence, 250 g ai/ha, scale 0 to 100
[7] = Preemergence, 375 g ai/ha, scale 0 (no effect) to 100 (complete control)
[8] = postemergence, 125 g ai/ha, scale 0 to 100
[9] = postemergence, 62 g ai/ha, scale 0 to 100
[10] = Preemergence, 125 g ai/ha, scale 0 (no effect) to 100 (complete control)

CCc1nn(C(C)(C)C)nc1C(=O)Nc1cccc(C(=S)N(C)C)c1 [Compound 395]
Plant response rating, Dallisgrass (dallisgrass; [1]): 50 | Plant response rating, Dallisgrass (dallisgrass; [2]): 70 | Plant response rating, Dallisgrass (dallisgrass; [3]): 90 | Plant response rating, Dallisgrass (dallisgrass; [4]): 90 | Plant response rating, Thistle (Russian thistle; [4]): 60 | Plant response rating, Ragweed (common ragweed; [1]): 10 | Plant response rating, Ragweed (common ragweed; [2]): 20 | Plant response rating, Ragweed (common ragweed; [3]): 60 | Plant response rating, Ragweed (common ragweed; [4]): 60 | Plant response rating, Crabgrass, Large (large crabgrass; [1]): 80 | Plant response rating, Crabgrass, Large (large crabgrass; [2]): 100 | Plant response rating, Crabgrass, Large (large crabgrass; [3]): 100 | Plant response rating, Crabgrass, Large (large crabgrass; [4]): 100 | Plant response rating, Itchgrass (itchgrass; [1]): 20 | Plant response rating, Itchgrass (itchgrass; [2]): 60 | Plant response rating, Itchgrass (itchgrass; [3]): 60 | Plant response rating, Itchgrass (itchgrass; [4]): 80 | Plant response rating, Bermudagrass (bermudagrass; [1]): 90 | Plant response rating, Bermudagrass (bermudagrass; [2]): 95 | Plant response rating, Bermudagrass (bermudagrass; [3]): 95 | Plant response rating, Bermudagrass (bermudagrass; [4]): 95 | Plant response rating, Surinam Grass (Surinam grass; [2]): 75 | Plant response rating, Surinam Grass (Surinam grass; [4]): 90 | Plant response rating, Quackgrass (quackgrass; [1]): 60 | Plant response rating, Quackgrass (quackgrass; [2]): 80 | Plant response rating, Quackgrass (quackgrass; [3]): 85 | Plant response rating, Quackgrass (quackgrass; [4]): 90

CCn1nc(C(C)(C)C)cc1C(=O)Nc1cc(C(=S)N(C)C)ccc1F [Compound 294]
Plant response rating, Dallisgrass (dallisgrass; [5]): 70 | Plant response rating, Dallisgrass (dallisgrass; [6]): 60 | Plant response rating, Dallisgrass (dallisgrass; [2]): 75 | Plant response rating, Dallisgrass (dallisgrass; [3]): 80 | Plant response rating, Dallisgrass (dallisgrass; [7]): 95 | Plant response rating, Dallisgrass (dallisgrass; [4]): 95 | Plant response rating, Dallisgrass (dallisgrass; [8]): 40 | Plant response rating, Dallisgrass (dallisgrass; [9]): 10 | Plant response rating, Thistle (Russian thistle; [5]): 80 | Plant response rating, Thistle (Russian thistle; [6]): 80 | Plant response rating, Thistle (Russian thistle; [2]): 50 | Plant response rating, Thistle (Russian thistle; [7]): 100 | Plant response rating, Thistle (Russian thistle; [4]): 100 | Plant response rating, Ragweed (common ragweed; [5]): 80 | Plant response rating, Ragweed (common ragweed; [6]): 70 | Plant response rating, Ragweed (common ragweed; [2]): 75 | Plant response rating, Ragweed (common ragweed; [3]): 85 | Plant response rating, Ragweed (common ragweed; [7]): 100 | Plant response rating, Ragweed (common ragweed; [4]): 100 | Plant response rating, Ragweed (common ragweed; [8]): 60 | Plant response rating, Ragweed (common ragweed; [9]): 30 | Plant response rating, Crabgrass, Large (large crabgrass; [5]): 80 | Plant response rating, Crabgrass, Large (large crabgrass; [6]): 75 | Plant response rating, Crabgrass, Large (large crabgrass; [2]): 75 | Plant response rating, Crabgrass, Large (large crabgrass; [3]): 95 | Plant response rating, Crabgrass, Large (large crabgrass; [7]): 100 | Plant response rating, Crabgrass, Large (large crabgrass; [4]): 100 | Plant response rating, Crabgrass, Large (large crabgrass; [8]): 70 | Plant response rating, Crabgrass, Large (large crabgrass; [9]): 40 | Plant response rating, Itchgrass (itchgrass; [5]): 80 | Plant response rating, Itchgrass (itchgrass; [6]): 75 | Plant response rating, Itchgrass (itchgrass; [3]): 75 | Plant response rating, Itchgrass (itchgrass; [7]): 95 | Plant response rating, Itchgrass (itchgrass; [4]): 100 | Plant response rating, Itchgrass (itchgrass; [8]): 70 | Plant response rating, Itchgrass (itchgrass; [9]): 50 | Plant response rating, Bermudagrass (bermudagrass; [5]): 75 | Plant response rating, Bermudagrass (bermudagrass; [6]): 75 | Plant response rating, Bermudagrass (bermudagrass; [2]): 90 | Plant response rating, Bermudagrass (bermudagrass; [3]): 95 | Plant response rating, Bermudagrass (bermudagrass; [7]): 95 | Plant response rating, Bermudagrass (bermudagrass; [4]): 95 | Plant response rating, Bermudagrass (bermudagrass; [8]): 50 | Plant response rating, Bermudagrass (bermudagrass; [9]): 20 | Plant response rating, Surinam Grass (Surinam grass; [5]): 85 | Plant response rating, Surinam Grass (Surinam grass; [6]): 80 | Plant response rating, Surinam Grass (Surinam grass; [2]): 95 | Plant response rating, Surinam Grass (Surinam grass; [7]): 100 | Plant response rating, Surinam Grass (Surinam grass; [4]): 100 | Plant response rating, Surinam Grass (Surinam grass; [8]): 70 | Plant response rating, Surinam Grass (Surinam grass; [9]): 30 | Plant response rating, Quackgrass (quackgrass; [5]): 85 | Plant response rating, Quackgrass (quackgrass; [6]): 85 | Plant response rating, Quackgrass (quackgrass; [2]): 80 | Plant response rating, Quackgrass (quackgrass; [3]): 80 | Plant response rating, Quackgrass (quackgrass; [7]): 95 | Plant response rating, Quackgrass (quackgrass; [4]): 95 | Plant response rating, Quackgrass (quackgrass; [8]): 80 | Plant response rating, Quackgrass (quackgrass; [9]): 60

CCn1nc(C(C)(C)C)cc1C(=O)Nc1cccc(C(N)=O)n1 [Compound 162, 6-[[[3-(1,1-dimethylethyl)-1-ethyl-1H-pyrazol-5-yl]carbonyl]amino]-2-pyridinecarboxamide]
Plant response rating, Dallisgrass (dallisgrass; [5]): 85 | Plant response rating, Dallisgrass (dallisgrass; [6]): 70 | Plant response rating, Dallisgrass (dallisgrass; [1]): 70 | Plant response rating, Dallisgrass (dallisgrass; [2]): 95 | Plant response rating, Dallisgrass (dallisgrass; [3]): 95 | Plant response rating, Dallisgrass (dallisgrass; [4]): 95 | Plant response rating, Dallisgrass (dallisgrass; [8]): 40 | Plant response rating, Dallisgrass (dallisgrass; [9]): 20 | Plant response rating, Thistle (Russian thistle; [1]): 50 | Plant response rating, Thistle (Russian thistle; [2]): 50 | Plant response rating, Thistle (Russian thistle; [4]): 70 | Plant response rating, Ragweed (common ragweed; [5]): 90 | Plant response rating, Ragweed (common ragweed; [6]): 80 | Plant response rating, Ragweed (common ragweed; [1]): 20 | Plant response rating, Ragweed (common ragweed; [2]): 60 | Plant response rating, Ragweed (common ragweed; [3]): 75 | Plant response rating, Ragweed (common ragweed; [4]): 95 | Plant response rating, Ragweed (common ragweed; [8]): 75 | Plant response rating, Ragweed (common ragweed; [9]): 50 | Plant response rating, Crabgrass, Large (large crabgrass; [5]): 95 | Plant response rating, Crabgrass, Large (large crabgrass; [6]): 90 | Plant response rating, Crabgrass, Large (large crabgrass; [1]): 50 | Plant response rating, Crabgrass, Large (large crabgrass; [2]): 90 | Plant response rating, Crabgrass, Large (large crabgrass; [3]): 95 | Plant response rating, Crabgrass, Large (large crabgrass; [4]): 100 | Plant response rating, Crabgrass, Large (large crabgrass; [8]): 50 | Plant response rating, Crabgrass, Large (large crabgrass; [9]): 30 | Plant response rating, Itchgrass (itchgrass; [5]): 95 | Plant response rating, Itchgrass (itchgrass; [6]): 95 | Plant response rating, Itchgrass (itchgrass; [1]): 40 | Plant response rating, Itchgrass (itchgrass; [2]): 95 | Plant response rating, Itchgrass (itchgrass; [3]): 95 | Plant response rating, Itchgrass (itchgrass; [4]): 100 | Plant response rating, Itchgrass (itchgrass; [8]): 85 | Plant response rating, Itchgrass (itchgrass; [9]): 75 | Plant response rating, Bermudagrass (bermudagrass; [5]): 80 | Plant response rating, Bermudagrass (bermudagrass; [6]): 70 | Plant response rating, Bermudagrass (bermudagrass; [1]): 70 | Plant response rating, Bermudagrass (bermudagrass; [2]): 80 | Plant response rating, Bermudagrass (bermudagrass; [3]): 90 | Plant response rating, Bermudagrass (bermudagrass; [4]): 100 | Plant response rating, Bermudagrass (bermudagrass; [8]): 30 | Plant response rating, Bermudagrass (bermudagrass; [9]): 0 | Plant response rating, Surinam Grass (Surinam grass; [5]): 100 | Plant response rating, Surinam Grass (Surinam grass; [6]): 98 | Plant response rating, Surinam Grass (Surinam grass; [1]): 60 | Plant response rating, Surinam Grass (Surinam grass; [2]): 75 | Plant response rating, Surinam Grass (Surinam grass; [4]): 100 | Plant response rating, Surinam Grass (Surinam grass; [8]): 90 | Plant response rating, Surinam Grass (Surinam grass; [9]): 50 | Plant response rating, Quackgrass (quackgrass; [5]): 95 | Plant response rating, Quackgrass (quackgrass; [6]): 90 | Plant response rating, Quackgrass (quackgrass; [1]): 20 | Plant response rating, Quackgrass (quackgrass; [2]): 60 | Plant response rating, Quackgrass (quackgrass; [3]): 75 | Plant response rating, Quackgrass (quackgrass; [4]): 90 | Plant response rating, Quackgrass (quackgrass; [8]): 70 | Plant response rating, Quackgrass (quackgrass; [9]): 50

CCNC(=O)c1ccc(F)c(NC(=O)c2cc(C(C)(C)C)nn2CC)c1 [Compound 2, 3-(1,1-dimethylethyl)-1-ethyl-N-[5-[(ethylamino)carbonyl]-2-fluorophenyl]-1H-pyrazole-5-carboxamide]
Plant response rating, Dallisgrass (dallisgrass; [6]): 90 | Plant response rating, Dallisgrass (dallisgrass; [1]): 60 | Plant response rating, Dallisgrass (dallisgrass; [10]): 90 | Plant response rating, Dallisgrass (dallisgrass; [3]): 95 | Plant response rating, Dallisgrass (dallisgrass; [4]): 95 | Plant response rating, Dallisgrass (dallisgrass; [8]): 80 | Plant response rating, Dallisgrass (dallisgrass; [9]): 75 | Plant response rating, Thistle (Russian thistle; [1]): 50 | Plant response rating, Thistle (Russian thistle; [2]): 60 | Plant response rating, Thistle (Russian thistle; [3]): 60 | Plant response rating, Thistle (Russian thistle; [4]): 80 | Plant response rating, Ragweed (common ragweed; [1]): 20 | Plant response rating, Ragweed (common ragweed; [10]): 60 | Plant response rating, Ragweed (common ragweed; [3]): 70 | Plant response rating, Ragweed (common ragweed; [4]): 85 | Plant response rating, Ragweed (common ragweed; [8]): 80 | Plant response rating, Ragweed (common ragweed; [9]): 60 | Plant response rating, Crabgrass, Large (large crabgrass; [6]): 98 | Plant response rating, Crabgrass, Large (large crabgrass; [1]): 70 | Plant response rating, Crabgrass, Large (large crabgrass; [10]): 80 | Plant response rating, Crabgrass, Large (large crabgrass; [3]): 100 | Plant response rating, Crabgrass, Large (large crabgrass; [4]): 100 | Plant response rating, Crabgrass, Large (large crabgrass; [8]): 95 | Plant response rating, Crabgrass, Large (large crabgrass; [9]): 90 | Plant response rating, Itchgrass (itchgrass; [6]): 90 | Plant response rating, Itchgrass (itchgrass; [1]): 60 | Plant response rating, Itchgrass (itchgrass; [10]): 70 | Plant response rating, Itchgrass (itchgrass; [3]): 90 | Plant response rating, Itchgrass (itchgrass; [4]): 95 | Plant response rating, Itchgrass (itchgrass; [8]): 90 | Plant response rating, Itchgrass (itchgrass; [9]): 70 | Plant response rating, Bermudagrass (bermudagrass; [6]): 90 | Plant response rating, Bermudagrass (bermudagrass; [1]): 90 | Plant response rating, Bermudagrass (bermudagrass; [10]): 95 | Plant response rating, Bermudagrass (bermudagrass; [3]): 100 | Plant response rating, Bermudagrass (bermudagrass; [4]): 100 | Plant response rating, Bermudagrass (bermudagrass; [8]): 85 | Plant response rating, Bermudagrass (bermudagrass; [9]): 20 | Plant response rating, Surinam Grass (Surinam grass; [6]): 100 | Plant response rating, Surinam Grass (Surinam grass; [1]): 60 | Plant response rating, Surinam Grass (Surinam grass; [2]): 80 | Plant response rating, Surinam Grass (Surinam grass; [3]): 80 | Plant response rating, Surinam Grass (Surinam grass; [4]): 90 | Plant response rating, Surinam Grass (Surinam grass; [8]): 90 | Plant response rating, Surinam Grass (Surinam grass; [9]): 75 | Plant response rating, Quackgrass (quackgrass; [6]): 95 | Plant response rating, Quackgrass (quackgrass; [1]): 30 | Plant response rating, Quackgrass (quackgrass; [10]): 60 | Plant response rating, Quackgrass (quackgrass; [3]): 70 | Plant response rating, Quackgrass (quackgrass; [4]): 80 | Plant response rating, Quackgrass (quackgrass; [8]): 90 | Plant response rating, Quackgrass (quackgrass; [9]): 70
